The test system of one test is CTLL. The test is described as follows: Cell death assay (annexin V / PI flow cytometry). In kind it is cell-based. The settings on record: murine CTLL; peptides at 150 μM. The method, then:
(§1) An Annexin-V-FITC conjugated kit (Roche) was used for the assessment of outer leaflet exposure of phosphatidylserine (PS) in the plasma membrane of apoptotic cells. Staining was performed according to the manufacturer's instructions. A total of […] cells were analyzed by flow cytometry in a FACSCalibur cytofluometer (BD Biosciences). Necrotic cells were excluded by propidium iodide (PI) staining, and single annexin V positive cells were considered apoptotic. For apoptotic analysis the different peptides were used at 150 μM.
(A flow cytometer gives signals particle by particle.)

The subject of a further test is TS1αβ cells. In words: Cell death assay (annexin V / PI flow cytometry). In kind it is cell-based, murine. The following applies: peptides at 150 μM. The method, then: as §1
Using flow cytometry detection of annexin V and PI, the inventors analyzed the capacity of DPT-C9 to induce apoptosis in TS1αβ cells cultured in presence of IL-2. In contrast to non penetrating C9 peptide, DPT-C9 induced a 6-fold increase of apoptosis.

In a further test the test system is Daudi cells. In words: Apoptosis assay (Annexin V-FITC), Example 2. Type of test: cell-based, human. The following applies: FIG. 1: 100 microM, 12 and 24 h, method says 150 mM, compared to control non-treated. The method, then:
FIG. 1. Daudi cell line was cultured in RPMI 1640 medium in the presence of DPT-PP2Ah peptide (100 microM). At 12 and 24 h, we analyze the apoptotic effect of the peptide by annexine stainin.
(§2) Annexin V-FITC kit was used for detection of apoptosis and staining was performed according to the manufacturer's instructions. A total of 1×10^5 cells were analyzed by flow cytometry in a FACSCalibur cytometer (BD Biosicences). Necrotic cells were excluded by PI staining and annexin V positive cells were considered apoptotic. The effect of DPT-PP2Ah was compared to untreated control cells or to DPT-C9h-treated cells. Penetrating peptides were used at […]. The shuttle alone (DPT-sh1) was also used as a control.

The next test deals with Daudi. The test is described as follows: Cell death assay (annexin V / PI flow cytometry). Type of test: cell-based, human. The settings on record: peptides at 150 μM. The method, then:
as §1

In a further test the test system is HeLa. In words: Cell death assay (annexin V / PI flow cytometry). Type of test: cell-based, human. The following applies: peptides at 150 μM. The method, then: as §1
The next test deals with Jurkat. In words: Cell death assay (annexin V / PI flow cytometry). In kind it is cell-based, human. The following applies: peptides at 150 μM. The method, then: as §1
Test [1] relates to primary cells isolated from xenograft model of lung cancer (LCF25). The test is described as follows: Apoptosis by annexin staining in primary cells from xenograft model. Type of test: cell-based. The settings on record: 100 microM, 16 h, compared to control non-treated cells. The method, then: (§3) FIG. 2 Cell isolated form xenograft models of lung cancer (LCF25), breast cancer (BC52) and uveal melanoma (KMP41) were cultured in DMEM medium in the absence (control) or in the presence of 100 microM of DPT-PP2Ah peptide. After 16 h of culture, apoptosis was estimated by annexin staining.
as §2

Test [2] concerns primary cells isolated from xenograft model of uveal melanoma (KMP41). The description is as above. In kind it is cell-based. The settings on record: 100 microM, 16 h, compared to control non-treated cells. The method, then:
as §3, §2

For test [3], the system named is primary cells isolated from xenograft model of breast cancer (BC52). The description is as above. Type of test: cell-based. The following applies: 100 microM, 16 h, compared to control non-treated cells. The method, then: as §3, §2
The subject of test [4] is triple negative breast cancer model BC11. The test is described as follows: In vivo tumor growth inhibition of primary human breast cancer xenografts. Also noted: species or system mice. The following applies: once daily for 5 weeks. The text has this: The primary human xenografts were obtained as previously described (Marangoni et al., (2007) Clin Cancer Res 13:3989-3998, de Plater et al., (2010) Br J Cancer 103:1192-1200. Spontaneously growing mammary tumors […] were xenografted into nude immunodeficient mice to allow pharmacological assessments, and maintained from nude mouse to nude mouse serially passages.
For therapeutic experimental assays, 5- to 8-week old Swiss nu/nu female mice received a subcutaneous graft of tumor fragments with a volume of approximately 15 mm^3. Tumors developed at the graft site 2 to 6 weeks later. Mice bearing growing tumors with a volume of 40 to 200 mm^3 were individually identified and randomly assigned to the control or treatment groups (9-10 animals in each group) and treatments were started on day 1. Mice were weighed twice a week. Tumour-bearing mice were sacrificed when the tumor volume reached 2500 mm^3, defined as the ethical limit. Tumor volumes and antitumor activity were evaluated as previously reported (Marangoni et al., (2007) Clin Cancer Res 13:3989-3998).
DPT-PP2Ah peptide diluted in water/glucose (1 to 25 mg/kg) was given by intraperitoneally route 7 days per week.
To evaluate the potential antitumor effect of DPT-PP2Ah, we treated mice bearing the triple negative breast cancer model BC11. […]
Background: A xenograft is tissue or cells of one species grown in another, often human tumour cells in immunodeficient mice.

Regarding “VKKKKIKREIKI-YVETLDGIFEQWAHSEDL (VKKKKIKREIKIYVETLDGIFEQWAHSEDL; Synthetic human DPT-C9) [DPT-C9h]”, in the test on CTLL, the “cell death (in words)” value is on record as “unable to cause cell death”. For the same substance, the “induction of apoptosis / cell death (in words)” value with TS1αβ cells is given as “unable to cause cell death”. For the same substance, the “apoptosis (annexin staining)” value in the test on Daudi cells was “lower apoptosis”. Further, the increase of apoptosis in the test on Daudi, in the test with HeLa and in the test on Jurkat was 5 fold throughout.
For the substance “VKKKKIKREIKIDTLDHIRALDRLQEVPHEGP (Synthetic DPT-PP2Ah)”, the “apoptosis (annexin staining)” value is reported as “strongly induces apoptosis” in the test on Daudi cells, “induces apoptosis” in [1], “induces apoptosis” in [2] and “induces apoptosis” in [3]. Further, the “tumor growth inhibition (TGI)” value in test [4] (1 mg/kg intraperitoneally, relative to 5 mg/kg) is “lower”; in test [4] (5 mg/kg intraperitoneally, end of treatment) it was “significant tumor growth inhibition”.

These data come from patent US20130303439A1, “CHIMERIC PEPTIDES INCLUDING A PENETRATING PEPTIDE AND A BINDING DOMAIN OF PP2A CATALYTIC SUBUNIT TO CASPASE-9” (Institut National de la Sante et de la Recherche Medicale …, priority 2010, published 2013).
